Results taken from US20150023972A1, “COMBINATION PHARMACEUTICAL COMPOSITION AND METHODS OF TREATING AND PREVENTING THE INFECTIOUS DISEASES” (priority 2010, published 2015).
Where two headings read alike, the source gives them in different places. Marks after values point to notes of the source that are not given here.

Assays:
[1] = tested on: influenza virus A/California/07/2009swl (H1N1); format: in vivo, mice; conditions: 10th day after infection; for Survival, % 10LD50: female Balb/c mice, intragastric
[2] = tested on: influenza virus A/California/07/2009swl (H1N1); format: in vivo, mice; conditions: 10th day after infection; for Survival, % 10LD50: female Balb/c mice, intragastric; remark: listed apart in the source
influenza = assay: open-label comparative controlled clinical study versus Tamiflu in influenza; format: in vivo, human
[3] = Morning Day 1, 37.0° C. and lower

For `CCOC(=O)C1=C[C@@H](OC(CC)CC)[C@H](NC(C)=O)[C@@H](N)C1` [Oseltamivir], which “Difference between % of survival in the group that received medication and % of survival in the group that received distilled water” value (shortened to “Difference between % of survival”) ([1]; stage 1) is on record?
Its value is “+60%”.

And the “Survival, % 10LD50” value ([1]; stage 1)?
Its value is 80* %.

What about the “Difference between % of survival” value ([1]; stage 2) of the same compound?
The value was “+65%”.

What about the “Survival, % 10LD50” value ([1]; stage 2) of the same compound?
Its value is 70* %.

What about the “Difference between % of survival” value ([2]; stage 1) of the same compound?
Its value is “+60%”.

What about the “Survival, % 10LD50” value ([2]; stage 1) of the same compound?
The value was 80* %.

And the “Difference between % of survival” value ([2]; stage 2)?
Its value is “+65%”.

And the “Survival, % 10LD50” value ([2]; stage 2)?
Its value is 70* %.

What about the “Mean values of body temperature, M ± SD” value (influenza; Evening Day 2) of the same compound?
The value was 36.9 ± 0.53 °C.

And the “Proportion of patients with normal temperature, %” value (“Proportion of patients … %” below) (influenza; Evening Day 2)?
The value was 45.5%.

What about the “The number of patients with normal temperature” value (“The number of patients” below) (influenza; Evening Day 2) of the same compound?
The value was 5.

What about the “Mean values of body temperature, M ± SD” value (influenza; Evening, Day 1) of the same compound?
The value was 37.3 ± 0.71 °C.

What about the “Proportion of patients … %” value (influenza; Evening, Day 1) of the same compound?
Its value is 9.1%.

And the “The number of patients” value (influenza; Evening, Day 1)?
Its value is 1.

What about the “Mean values of body temperature, M ± SD” value (influenza; Evening, Day 3) of the same compound?
Its value is 36.7 ± 0.46 °C.

What about the “Proportion of patients … %” value (influenza; Evening, Day 3) of the same compound?
Its value is 54.5%.

What about the “The number of patients” value (influenza; Evening, Day 3) of the same compound?
Its value is 6.

What about the “Mean values of body temperature, M ± SD” value (influenza; Evening, Day 4) of the same compound?
The value was 36.5 ± 0.38 °C.

And the “Proportion of patients … %” value (influenza; Evening, Day 4)?
Its value is 80.0%.

And the “The number of patients” value (influenza; Evening, Day 4)?
The value was 8.

And the “Mean values of body temperature, M ± SD” value (influenza; Evening, Day 5)?
The value was 36.5 ± 0.21 °C.

And the “Proportion of patients … %” value (influenza; Evening, Day 5)?
The value was 90.0%.

What about the “The number of patients” value (influenza; Evening, Day 5) of the same compound?
The value was 9.

And the “Mean values of body temperature, M ± SD” value (influenza; Evening, Day 6)?
Its value is 36.3 ± 0.19 °C.

And the “Proportion of patients … %” value (influenza; Evening, Day 6)?
The value was 100.0%.

What about the “The number of patients” value (influenza; Evening, Day 6) of the same compound?
Its value is 7.

And the “Mean values of body temperature, M ± SD” value (influenza; Evening, Day 7)?
The value was 36.6 ± 0.12 °C.

What about the “Proportion of patients … %” value (influenza; Evening, Day 7) of the same compound?
Its value is 100.0%.

What about the “The number of patients” value (influenza; Evening, Day 7) of the same compound?
The value was 4.

What about the “Mean values of body temperature, M ± SD” value (influenza; Morning Day 1) of the same compound?
Its value is 38.1 ± 0.82 °C.

What about the “Proportion of patients … %” value (influenza; [3]) of the same compound?
The value was 0%.

What about the “The number of patients” value (influenza; [3]) of the same compound?
Its value is 0.

And the “Mean values of body temperature, M ± SD” value (influenza; Morning Day 2)?
The value was 37.3 ± 0.72 °C.

And the “Proportion of patients … %” value (influenza; Morning Day 2)?
Its value is 36.4%.

And the “The number of patients” value (influenza; Morning Day 2)?
Its value is 4.

What about the “Mean values of body temperature, M ± SD” value (influenza; Morning Day 3) of the same compound?
The value was 36.9 ± 0.47 °C.

What about the “Proportion of patients … %” value (influenza; Morning Day 3) of the same compound?
Its value is 45.5%.

And the “The number of patients” value (influenza; Morning Day 3)?
Its value is 5.

What about the “Mean values of body temperature, M ± SD” value (influenza; Morning Day 4) of the same compound?
The value was 36.8 ± 0.37 °C.

What about the “Proportion of patients … %” value (influenza; Morning Day 4) of the same compound?
The value was 90.9%.

And the “The number of patients” value (influenza; Morning Day 4)?
Its value is 10.

And the “Mean values of body temperature, M ± SD” value (influenza; Morning Day 5)?
The value was 36.7 ± 0.25 °C.

What about the “Proportion of patients … %” value (influenza; Morning Day 5) of the same compound?
Its value is 90.0%.

And the “The number of patients” value (influenza; Morning Day 5)?
Its value is 9.

What about the “Mean values of body temperature, M ± SD” value (influenza; Morning Day 6) of the same compound?
Its value is 36.6 ± 0.21 °C.

What about the “Proportion of patients … %” value (influenza; Morning Day 6) of the same compound?
Its value is 100.0%.

And the “The number of patients” value (influenza; Morning Day 6)?
The value was 9.

And the “Mean values of body temperature, M ± SD” value (influenza; Morning Day 7)?
The value was 36.5 ± 0.10 °C.

What about the “Proportion of patients … %” value (influenza; Morning Day 7) of the same compound?
Its value is 100.0%.

And the “The number of patients” value (influenza; Morning Day 7)?
Its value is 5.

What about the “Mean values of body temperature, M ± SD” value (influenza; Morning Day 8) of the same compound?
Its value is 36.5 ± 0.14 °C.

And the “Proportion of patients … %” value (influenza; Morning Day 8)?
Its value is 100.0%.

What about the “The number of patients” value (influenza; Morning Day 8) of the same compound?
Its value is 3.

And the “mean number of antipyretic intakes” value (influenza; by the morning of Day 4 of the therapy)?
The value was 7.4±0.90.

And the “Bacterial complications, Otitis, %” value (influenza; influenza)?
The value was 0/0%.

And the “Bacterial complications, Pneumonia, %” value (influenza; influenza)?
Its value is 9.1%.

And the “Bacterial complications, Total, %” value (influenza; influenza)?
The value was 27.2%.

What about the “Bacterial complications, Tracheitis, %” value (influenza; influenza) of the same compound?
Its value is 18.2%.
